This is an account of results in article PMC8653149, “Cyclic Analogs of Desferrioxamine E Siderophore for ^68Ga Nuclear Imaging: Coordination Chemistry and Biological Activity in Staphylococcus aureus” (Inorganic Chemistry, 2021).

Data set [1] is described as follows: Fe(III) complex stability constants by potentiometric and pH-dependent UV–vis titrations. To be noted: calculated for [L] = 1 × 10^–4, [M] = 1 × 10^–5 at pH 7.4. Format: physicochemical. How it is done:
Therefore, the stability constants of the first species formed in solution were determined from the spectrophotometric pH-dependent batch titrations carried out in the pH range of around 0.1–2 (Figure S3), by following the changes in the intense LMCT band of the metal complex. These values were further used as constant values in spectrophotometric or potentiometric titrations carried out in the pH range from 2 to 11 (Figure S3) to get the overall stability constants, logβFeL (Table S5). […] Metal–metal competition titrations were carried out at pH 1.6 for FOX 2-5 and FOX 2-4 and at pH 2 for the rest of the analogs and the native compound.
Potentiometric titrations were performed using an automatic titrator system Titrando 905 (Metrohm) equipped with a 800 Dosino dosing unit and a microburet with a volume of 2 mL. A combined glass electrode was calibrated each day for hydrogen ion concentration by 0.1 M HClO4 with CO2-free 0.1 M NaOH solutions. A stream of high purity grade argon, presaturated with water vapor, passed over the surface of the solution cell, filled with 3 mL of the studied solution. For each system, a minimum of four independent titrations was performed. The purity of ligand and accurate concentration of ligand solution were determined before each experiment with the Gran method[68] by potentiometric titration of the 3 mL sample of the ligand, with [L] ∼ 1 × 10^–3 M. In separate potentiometric titrations, the metal-to-ligand ratio was 1:1, and the concentration of metal was 2 × 10^–3 M. The potentiometric data were refined to obtain the overall Fe(III)-FOXE and Ga(III)-FOXE derivative binding constants (logβFe(III)L, logβGa(III)L).
The absorption measurements (200 nm–800 nm) were performed on a Varian Cary 300 Bio UV–visible spectrophotometer. The solutions were measured in high precision Quartz […] cuvettes (1 and 3 mL) with 1 cm lightpath (Hellma).
Two series of experiments were performed: (i) in the pH range of 0.1–2 and (ii) between pH 2 and 11. In the first series of experiments, (i) the stock solution of the ligand was divided into various batches followed by Fe(III) addition, with a constant total volume of 2 mL, [Fe(III)] = 2 × 10^–4 M, and a metal-to-ligand molar ratio of 1:1. The pH was controlled by concentration of the perchloric acid. After preparation, each solution was allowed to equilibrate for 1 h at 25 °C, and then its UV–vis spectrum was recorded.
The experimental sets with over 140 points collected in the pH range 2–11 for a single potentiometric measurement were imported to the […] software,[69] which uses nonlinear least-squares methods for data treatment. Spectroscopic data were refined using SPECFIT/32 software, which uses factor analysis to reduce the absorbance matrix and to extract the eigenvalues prior to the multiwavelength fit of the reduced data set according to the Marquardt algorithm and adjusts the absorptivity and the stability constants of the species formed at equilibrium.[70]−[72] Standard deviation was used for the calculation of the uncertainties in logβ. Speciation plots were prepared using HYSS software,[73] implementing data gathered in Tables S4, S5, and S8. Raw data was processed using Origin 7.0.

The nature of data set [2]: Cyclic voltammetry of Fe(III)-FOXE derivative complexes (redox potential, Fe(II) stability constants). Format: physicochemical. To be noted: for E1/2 vs NHE: CV; for E1/2 vs NHE / logβFe(II): [L] = 2 × 10^–3 M, M:L 1:1, pH = 7, T = 25 °C; for E°complex: [Fe(III)] = 2·10^-3 M, M:L ratio 1:1, pH = 7, T = 25°C, I = 0.1M NaClO4, glass-carbon working electrode; for logβFe(II): calculated from CV measurement. How it is done:
Redox chemistry of Fe(III) species was determined in cyclic voltammetry (CV) assays. […] We have obtained quasireversible voltammograms for Fe(III)-FOXE analog complexes (Figure S8), with ΔE ranging from −369 mV to −470 mV. The values of E1/2 (Table 1) were recalculated vs normal hydrogen electrode (NHE). To ensure that only fully hexacoordinated complexes [FeL] were characterized, experiments were carried out at fixed pH = 7 where this form is dominating in solution. Higher strength of the complex (larger pM value) correlates to lower redox potential. This behavior was in agreement with previously reported data[61],[62] for similar complexation systems.
Redox potentials for Fe(III)-FOXE derivatives were determined using cyclic voltammetry with a VA 797 Computrace Voltammeter (Metrohm) equipped with glass-carbon, AgCl/Cl, and platinum wire electrodes. Concentration of the measured samples was [Fe(III)] = 2 × 10^–3, M:L ratio 1:1, at 25.0 ± 0.1 °C; pH 7.0 was provided by addition of a suitable amount of NaOH under control of a pH meter. The scan range was from −0.3 V to −1 V in a cycle: Fe(III)–FOX [drawing 1] Fe(II)–FOX [drawing 2] Fe(III)–FOX. Received data (Figure S8) was standardized for the NHE electrode. The electrochemical data were refined to obtain the overall Fe(II)-FOXE derivative binding constant (logβFe(II)L^–) by implementing the Nernst equation (S1).
Figure S8. CV voltammograms used to calculate (logβ) constants for studied complexes a with
Fe(II) ions: a) FOX 2-2, b) Fe-FOX 2-3, c) FOX 2-4, d) FOX 2-5, e) FOX 3-5
aConditions: [Fe(III)] = 2·10^-3 M, M:L ratio 1:1, pH = 7, T = 25°C, I = 0.1M NaClO 4 on glass-carbon working
For each complex the stability constant for Fe(II)-analog was calculated using eq. S10
E complex ― Eaq = ―59.15log (βII) (S10)
Table S9. E 1/2 and stability (logβ) constants for studied complexes with Fe(II) ions a […]

A short description of data set [3]: Ligand–ligand competition UV–vis titrations of Fe(III) complexes vs EDTA. Format: physicochemical. To be noted: [L] = 1.5·10^-4 M, M:L ratio 1:1, pH = 7, T = 25°C, I = 0.1 M NaClO4.
Description: In this series of experiments, the stock solution of FOX ligand was divided into various batches followed by metal addition with a constant total volume of 2 mL, [Fe(III)] = 2 × 10^–4, and a metal-to-ligand molar ratio of 1:1. The EDTA ligand was added to a previously prepared series of solutions in increasing concentration, from a 0 to 10 molar excess for FOX 2-5 and from a 0 to 1.2 molar excess for the rest of the derivatives. pH was adjusted to ∼7 with the NaOH solution. After preparation, each solution was allowed to equilibrate for 3–7 days, depending on the investigated complex. Changes were observed between the collected spectra, and they were measured consequently until no further changes were present. The UV–vis spectra were recorded (Figure S4), and competition data were refined to obtain the overall Fe(III)-FOXE derivative binding constant (logβFe(III)L). The protonation constants of FOXE derivatives (Table S4) and formation constants for Fe(III)-FOXE derivative complex species (Table S5) were treated as fixed parameters in data analysis.
The spectrophotometric competition experiments with EDTA
The spectrophotometric competition experiments with EDTA were performed at fixed pH 7.0,
to compete effectively with the tris-hydroxamates for ferric ion at intermediate pH values (5-8)
if an excess of EDTA is used. The competition equilibrium is described by equations (S5) and
Fe IIIL  EDTA K  FeIII EDTA  L (S5)
[FeIII L][EDTA]  Fe(III)L (S6)
The competition data were refined to obtain the overall Fe(III)-FOX binding constant logβ FeL
(Table S7) for analogs using a model involving two ligands and one metal.
The concentration of Fe(III)-analog complex for each derivative, [FeL], was calculated from
the absorbance maximum at around 420 nm (where FeL is the only light-absorbing species) and
previously determined extinction coefficients. The concentrations of other species in equation
(S6) were calculated from mass balance equations using the experimental pH values:
[Fe]tot =  FeL[FeL] +  FeEDTA[FeEDTA]
[L]tot =  FeL[FeL] +  L[L]
[EDTA]tot =  FeEDTA[FeEDTA] +  EDTA[EDTA]
a is the usual Ringbom’s coefficient.
Data set [4] is described as follows: Fe(III) complex stability constants by potentiometric and pH-dependent UV–vis titrations. Format: physicochemical. Conditions: I = 0.1 M NaClO4; for logβ[FeHL]+ / logβ[FeL] / pKNHOH of Fe(III) complex: M:L 1:1, T = 25°C; for logβFe(III)L: potentiometric [L] = 1 × 10^–3 M and UV–vis 5 × 10^–5 M, M:L 1:1, T = 25 °C.
Data set [5] in a line: Distribution coefficient (logD) of ^68Ga-labeled ligands between octanol and PBS.
Setting [6] is: UV-Vis pH-dependent titrations, 1·10^-4 M.
[7] abbreviates: potentiometric, [L] = 1·10^-3 M.

As to `O=C1CCN(O)C(=O)CCNC(=O)CCN(O)C(=O)CCNC(=O)CCN(O)C(=O)CCN1` [FOX 2-2], the “pFe(III)” value in data set [1] is reported as 21.5. Also, in data set [2], the “E1/2 vs NHE” value is “–369 mv”, the “E°complex” value is given as -369 mV and the “logβFe(II)” value is listed as 7.48. The “logβ[FeL]” value in data set [3] is listed as 26.57 (4). The “logβ[FeHL]+” value in data set [4] (setting [6]) is 30.64 (6). In addition, the “logβFe(III)L” value in data set [4] is 25.92(8). For the same molecule, in data set [4] (setting [7]), the “logβ[FeL]” value is 25.92 (8) and the “pKNHOH of Fe(III) complex” value amounted to 4.72. The logD (commonly lipophilicity at a set pH, counting ionised and neutral species) at 20 min in data set [5] is -2.66.
Take `O=C1CCCN(O)C(=O)CCNC(=O)CCCN(O)C(=O)CCNC(=O)CCCN(O)C(=O)CCN1` [FOX 2-3]: the “pFe(III)” value in data set [1] is 22.7. Also, in data set [2], the “E1/2 vs NHE” value is “–432 mv”, the “E°complex” value is listed as -432 mV and the “logβFe(II)” value is 7.54. In addition, the “logβ[FeL]” value in data set [3] was 26.55 (3). For the same molecule, in data set [4] (setting [6]), the “logβ[FeHL]+” value is 30.44 (5), the “logβ[FeL]” value is recorded as 26.70 (9) and the “pKNHOH of Fe(III) complex” value worked out at 3.74. The “logβFe(III)L” value in data set [4] is given as 27.22(2). For the same molecule, in data set [4] (setting [7]), the “logβ[FeL]” value is reported as 27.22 (2) and the “pKNHOH of Fe(III) complex” value turned out to be 3.22. In data set [5], this molecule yielded a logD at 20 min of -2.96.
Take `O=C1CCCCN(O)C(=O)CCNC(=O)CCCCN(O)C(=O)CCNC(=O)CCCCN(O)C(=O)CCN1` [FOX 2-4]: the “pFe(III)” value in data set [1] is given as 24.3. In data set [2], the “E1/2 vs NHE” value is recorded as “–426 mv”, the “E°complex” value was -426 mV and the “logβFe(II)” value is given as 9.12. For the same molecule, the “logβ[FeL]” value in data set [3] is given as 27.13 (1). Also, in data set [4] (setting [6]), the “logβ[FeHL]+” value was 30.83 (4), the “logβ[FeL]” value was 28.71 (7) and the “pKNHOH of Fe(III) complex” value is recorded as 2.12. Moreover, the “logβFe(III)L” value in data set [4] is listed as 28.71(7). In data set [5], the logD at 20 min is -3.02.
In the case of `O=C1CCCCCN(O)C(=O)CCNC(=O)CCCCCN(O)C(=O)CCNC(=O)CCCCCN(O)C(=O)CCN1` [FOX 2-5], in data set [1], the “pFe(III)” value is listed as 27.0. Further, in data set [2], the “E1/2 vs NHE” value is recorded as “–452 mv”, the “E°complex” value is reported as -452 mV and the “logβFe(II)” value is 11.29. Also, the “logβ[FeL]” value in data set [3] is given as 28.81 (1). The “logβ[FeL]” value in data set [4] (setting [6]) is reported as 31.32 (8). In data set [5], this molecule came in with a log distribution coefficient (logD) at 20 min of -1.9.
As for `O=C1CCCCCN(O)C(=O)CCCNC(=O)CCCCCN(O)C(=O)CCCNC(=O)CCCCCN(O)C(=O)CCCN1` [FOX 3-5], in data set [1], the “pFe(III)” value is recorded as 24.1. Besides, in data set [2], the “E1/2 vs NHE” value is listed as “–416 mv”, the “E°complex” value is listed as -416 mV and the “logβFe(II)” value is 8.48. Moreover, the “logβ[FeL]” value in data set [3] is given as 28.38 (1). In addition, in data set [4] (setting [6]), the “logβ[FeL]” value was 28.59 (3) and the “pKNHOH of Fe(III) complex” value stood at 2.54. Also, in data set [4] (setting [7]), the “logβ[FeL]” value is 28.81 (1) and the “pKNHOH of Fe(III) complex” value was 2.32. The molecule also registered a logD at 20 min in data set [5] of -1.57.
